From US20240182445A1 (ONO PHARMACEUTICAL CO., LTD., priority 2019, published 2024) come the findings set out here.

In the first test the target is T1, human TREK-1 (Homo sapiens, UniProt O95069).
T1 construct: expressed in transfected cells
T1 sequence (O95069 1-426): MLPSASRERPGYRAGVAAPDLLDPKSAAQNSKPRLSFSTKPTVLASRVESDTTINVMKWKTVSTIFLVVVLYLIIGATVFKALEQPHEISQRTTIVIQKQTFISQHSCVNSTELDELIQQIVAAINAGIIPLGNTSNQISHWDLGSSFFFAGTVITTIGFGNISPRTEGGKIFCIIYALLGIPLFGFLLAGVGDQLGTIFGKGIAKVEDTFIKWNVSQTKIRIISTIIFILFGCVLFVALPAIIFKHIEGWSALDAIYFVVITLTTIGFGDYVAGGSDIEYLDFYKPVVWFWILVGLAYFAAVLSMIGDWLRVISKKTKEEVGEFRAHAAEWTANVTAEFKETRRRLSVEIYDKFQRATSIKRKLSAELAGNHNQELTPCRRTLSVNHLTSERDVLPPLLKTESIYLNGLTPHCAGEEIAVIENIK
Kind of test: TREK-1 Thallium (Tl+) flux assay, Method 1. The format is cell-based. As to conditions: TREK-1 Thallium (Tl+) flux assay, Method 1. The method, boiled down:
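Readout: Thallos fluorescence ratio, taken 25 s post-thallium relative to the pre-thallium baseline average, then converted to % inhibition. Cells were CHO-K1 stably expressing human TREK-1, dye-loaded and exposed to test compound (vehicle 0.3% DMSO) for 10 min prior to thallium stimulation.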
In the case of `CCC(=O)N1CCOC(Cn2ncc(Cl)c2C(=O)Nc2ccc(OCc3ccccc3)cc2C)C1` (stereo not drawn) [Compound 435], the concentration for half-maximal inhibition (IC50) – broadly, the midpoint of a concentration-inhibition curve – is 8110 nM.

In the case of `CC(=O)N1CCC(n2ncc(Cl)c2C(=O)Nc2ncc(-c3ccc(C(F)(F)F)cc3)cc2C)CC1` [Compound 427, 1-(1-acetylpiperidin-4-yl)-4-chloro-N-(3-methyl-5-(4-(trifluoromethyl)phenyl)pyridin-2-yl)-1H-pyrazole-5-carboxamide], 5210 nM corresponded to half-maximal inhibition (IC50). Still for that read-out and setting: then `Cc1cc(OCc2ccccc2)ccc1NC(=O)c1c(Cl)cnn1CC1CN(C(=O)C2CC2C)CCO1` (stereo not drawn) [Compound 417, N-(4-(benzyloxy)-2-methylphenyl)-4-chloro-1-((4-(2-methylcyclopropane-1-carbonyl)morpholin-2-yl)methyl)-1H-pyrazole-5-carboxamide], with 4160 nM.

Staying with this test, now noted: TREK-1 Thallium (Tl+) flux assay; no *^12 (Method 2) mark on these rows.
The compound `CC(=O)N1CCC(n2ncc(Cl)c2C(=O)Nc2ncc(C#Cc3ccccc3)cc2C)C1` (stereo not drawn) [Compound 238, 1-(1-acetylpyrrolidin-3-yl)-4-chloro-N-(3-methyl-5-(phenylethynyl)pyridin-2-yl)-1H-pyrazole-5-carboxamide] returned an IC50 of 370 nM. As to `CC(=O)N1CCC(Cn2ncc(Cl)c2C(=O)Nc2ncc(C#Cc3ccc(F)cc3)cc2C)CC1` [Compound 256, 1-((1-acetylpiperidin-4-yl)methyl)-4-chloro-N-(5-((4-fluorophenyl)ethynyl)-3-methylpyridin-2-yl)-1H-pyrazole-5-carboxamide], the 50% inhibitory concentration (IC50) amounted to 420 nM. The same measure, in the same setting: next, `Cc1cc(C#Cc2cccs2)cnc1NC(=O)c1c(Cl)cnn1[C@H]1C[C@@H]2CN(C(=O)C3CC3)C[C@@H]2C1` [Compound 204, 4-chloro-1-[(3aR,5s,6aS)-2-(cyclopropanecarbonyl)octahydrocyclo-penta[c]pyrrol-5-yl]-N-{3-methyl-5-[(thiophen-2-yl)ethynyl]pyridin-2-yl}-1H-pyrazole-5-carboxamide]: 310 nM; `Cc1cc(C#Cc2ccc(F)cc2)cnc1NC(=O)c1c(Cl)cnn1[C@H]1CCOC1` [Compound 322, (S)-4-chloro-N-(5-((4-fluorophenyl)ethynyl)-3-methylpyridin-2-yl)-1-(tetrahydrofuran-3-yl)-1H-pyrazole-5-carboxamide]: 630 nM. `CC(=O)N1C[C@H]2C[C@H](n3ncc(Cl)c3C(=O)Nc3ncc(C#Cc4ccc(F)cc4)cc3C)C[C@H]2C1` [Compound 331, 1-[(3aR,5s,6aS)-2-acetyloctahydrocyclopenta[c]pyrrol-5-yl]-4-chloro-N-{5-[(4-fluorophenyl)ethynyl]-3-methylpyridin-2-yl}-1H-pyrazole-5-carboxamide] yielded an IC50 of 660 nM. On to `Cc1cc(C#Cc2ccc(F)cc2)cnc1NC(=O)c1c(Cl)cnn1CC1C2CC1CN(C(=O)C(C)C)C2` (stereo not drawn) [Compound 314, 4-chloro-N-(5-((4-fluorophenyl)ethynyl)-3-methylpyridin-2-yl)-1-((3-isobutyryl-3-azabicyclo[3.1.1]heptan-6-yl)methyl)-1H-pyrazole-5-carboxamide], for which the IC50 was determined as 590 nM. The compound `CC(=O)N1C[C@H]2C[C@H](n3ncc(Cl)c3C(=O)Nc3ncc(C#Cc4ccccc4F)cc3C)C[C@H]2C1` [Compound 359, 1-[(3aR,5s,6aS)-2-acetyloctahydrocyclopenta[c]pyrrol-5-yl]-4-chloro-N-{5-[(2-fluorophenyl)ethynyl]-3-methylpyridin-2-yl}-1H-pyrazole-5-carboxamide] returned an IC50 of 900 nM.

In the case of `Cc1cc(C#Cc2ccc(F)cc2)cnc1NC(=O)c1c(Cl)cnn1C1CCN(C(=O)CC(C)C)C1` (stereo not drawn) [Compound 258, 4-chloro-N-(5-((4-fluorophenyl)ethynyl)-3-methylpyridin-2-yl)-1-(1-(3-methylbutanoyl)pyrrolidin-3-yl)-1H-pyrazole-5-carboxamide], inhibition was half-maximal at 420 nM (IC50). Consider `CC(C)(C)OC(=O)N1CCCC(Cn2ncc(Cl)c2C(=O)Nc2ncc(C#Cc3ccccc3)cc2F)C1` (stereo not drawn) [Compound 365, tert-butyl 3-((4-chloro-5-((3-fluoro-5-(phenylethynyl)pyridin-2-yl)carbamoyl)-1H-pyrazol-1-yl)methyl)piperidine-1-carboxylate], for which the IC50 turned out to be 920 nM. `CC(=O)N1CCCC(Cn2ncc(Cl)c2C(=O)Nc2ncc(C#Cc3ccc(F)cc3)cc2C)C1` (stereo not drawn) [Compound 248, 1-((1-acetylpiperidin-3-yl)methyl)-4-chloro-N-(5-((4-fluorophenyl)ethynyl)-3-methylpyridin-2-yl)-1H-pyrazole-5-carboxamide] came in with an IC50 of 390 nM.

As to `CC(=O)N1CCN(CCn2ncc(Cl)c2C(=O)Nc2ncc(C#Cc3ccccc3)cc2C)CC1` [Compound 303, 1-(2-(4-acetylpiperazin-1-yl)ethyl)-4-chloro-N-(3-methyl-5-(phenylethynyl)pyridin-2-yl)-1H-pyrazole-5-carboxamide], the IC50 was 560 nM.

The same test, now with this note: TREK-1 Thallium (Tl+) flux assay; values without footnote *12 are Method 1.
For `Cc1cc(C#Cc2cccs2)cnc1NC(=O)c1c(Cl)cnn1CC1CCN(C(=O)C2CC2)CC1` [Compound 57, 4-chloro-1-((1-(cyclopropanecarbonyl)piperidin-4-yl)methyl)-N-(3-methyl-5-(thiophen-2-ylethynyl)pyridin-2-yl)-1H-pyrazole-5-carboxamide], the 50% inhibitory concentration (IC50) came to 140 nM. Still for that read-out and setting: then `CC(=O)N1CCC(n2ncc(Cl)c2C(=O)Nc2ncc(C#Cc3cccs3)cc2C)CC1` [Compound 19, 1-(1-acetylpiperidin-4-yl)-4-chloro-N-(3-methyl-5-(thiophen-2-ylethynyl)pyridin-2-yl)-1H-pyrazole-5-carboxamide], with 60 nM; and `N#CC1(Cn2ncc(Cl)c2C(=O)Nc2c(F)cc(C#Cc3ccccc3)cc2F)CC1` [Compound 168, 4-chloro-1-((1-cyanocyclopropyl)methyl)-N-(2,6-difluoro-4-(phenylethynyl)phenyl)-1H-pyrazole-5-carboxamide], with 270 nM; and `Cc1cc(C#Cc2ccccc2)cnc1NC(=O)c1c(Cl)cnn1CC1(C#N)CCN(C(=O)C(C)C)CC1` [Compound 49, 4-chloro-1-((4-cyano-1-isobutyrylpiperidin-4-yl)methyl)-N-(3-methyl-5-(phenylethynyl)pyridin-2-yl)-1H-pyrazole-5-carboxamide], with 130 nM. The compound `CC(=O)N1CCC(n2ncc(Cl)c2C(=O)Nc2ncc(C#Cc3ccccc3F)cc2C)CC1` [Compound 164, 1-(1-acetylpiperidin-4-yl)-4-chloro-N-(5-((2-fluorophenyl)ethynyl)-3-methylpyridin-2-yl)-1H-pyrazole-5-carboxamide] gave a half-inhibitory concentration (IC50) of 260 nM.

The compound `Cc1cc(C#Cc2cccs2)cnc1NC(=O)c1c(Cl)cnn1CC1CCN(C(=O)C(C)C)CC1` [Compound 76, 4-chloro-1-((1-isobutyrylpiperidin-4-yl)methyl)-N-(3-methyl-5-(thiophen-2-ylethynyl)pyridin-2-yl)-1H-pyrazole-5-carboxamide] yielded an IC50 of 160 nM. Same read-out and setting: then `O=C(Nc1ncc(C#Cc2ccccc2)cc1F)c1c(Cl)cnn1C1CCOCC1` [Compound 51, 4-chloro-N-(3-fluoro-5-(phenylethynyl)pyridin-2-yl)-1-(tetrahydro-2H-pyran-4-yl)-1H-pyrazole-5-carboxamide], with 140 nM. On the same count and under the same terms, next, `CC(=O)N1CCCC(n2ncc(Cl)c2C(=O)Nc2ncc(C#Cc3ccccc3)cc2F)CC1` (stereo not drawn) [Compound 26]: 90 nM; `Cc1cc(C#Cc2ccc(F)cc2)cnc1NC(=O)c1c(Cl)cnn1C1CC2(C1)CN(C(=O)C1COCCO1)C2` (stereo not drawn) [Compound 138, 1-(2-(1,4-dioxane-2-carbonyl)-2-azaspiro[3.3]heptan-6-yl)-4-chloro-N-(5-((4-fluorophenyl)ethynyl)-3-methylpyridin-2-yl)-1H-pyrazole-5-carboxamide]: 220 nM; `Cc1cc(C#Cc2ccccc2)cnc1NC(=O)c1c(Cl)cnn1-c1ccc2c(cnn2C)c1` [Compound 22, 4-chloro-1-(1-methyl-1H-indazol-5-yl)-N-(3-methyl-5-(phenylethynyl)pyridin-2-yl)-1H-pyrazole-5-carboxamide]: 80 nM.

Staying with this test, now noted: read-out: Tl^+ Assay % inhibition at 30 uM (Minus value indicates activation of TREK-1); at 30 uM; CHO-K1 cells stably expressing human TREK-1; minus = activation.
Consider `CC(=O)N1CCC(CCn2cc(Cl)c(C(=O)Nc3ncc(C#Cc4cccs4)cc3C)n2)CC1` [Compound 440, 1-(2-(1-actetylpiperidin-4-yl)ethyl)-4-chloro-N-(3-methyl-5-(thiophen-2-ylethynyl)pyridin-2-yl)-1H-pyrazole-3-carboxamide], for which the inhibition (in general, the change of the read-out against control, counted positive when it falls) at 30 µM was -135%.

As for `Cn1ncc2c1CC(n1cc(Cl)c(C(=O)Nc3ncc(C#Cc4ccccc4)cc3F)n1)CC2=O` (stereo not drawn) [Compound 453, 4-chloro-N-(3-fluoro-5-(phenylethynyl)pyridin-2-yl)-1-(1-methyl-4-oxo-4,5,6,7-tetrahydro-1H-indazol-6-yl)-1H-pyrazole-3-carboxamide], the inhibition at 30 µM is -56%. Still for that read-out and setting: next, `Cc1cc(C#Cc2ccc(F)cc2)cnc1NC(=O)c1nn(CCC2CCN(C(=O)C3CC3)CC2)cc1Cl` [Compound 451, 4-chloro-1-(2-(1-(cyclopropanecarbonyl)piperidin-4-yl)ethyl)-N-(5-((4-fluorophenyl)ethynyl)-3-methylpyridin-2-yl)-1H-pyrazole-3-carboxamide]: -79%.
